Measured values from patent US20130190407A1, “CALCIUM RECEPTOR-ACTIVE MOLECULES” (NPS Pharmaceuticals, Inc., priority 1991, published 2013).

How the values were obtained:
Type in all cases: cell-based
[1] = target: T1, human parathyroid cell calcium receptor (Homo sapiens, UniProt P41180, E1011Q/Q926R); experiment: Cl- current in Xenopus oocytes injected with pHuPCaR 5.2; conditions: 3 to 30 μM; 0.3 mM extracellular Ca2+
T1 construct: appear to be full-length clones corresponding to the 5 Kb mRNA; expressed in transfected cells; host or cells: Xenopus laevis oocytes injected with pHuPCaR 5.2
T1 sequence (P41180 20-1088 isoform P41180-2 Q936R/E1021Q): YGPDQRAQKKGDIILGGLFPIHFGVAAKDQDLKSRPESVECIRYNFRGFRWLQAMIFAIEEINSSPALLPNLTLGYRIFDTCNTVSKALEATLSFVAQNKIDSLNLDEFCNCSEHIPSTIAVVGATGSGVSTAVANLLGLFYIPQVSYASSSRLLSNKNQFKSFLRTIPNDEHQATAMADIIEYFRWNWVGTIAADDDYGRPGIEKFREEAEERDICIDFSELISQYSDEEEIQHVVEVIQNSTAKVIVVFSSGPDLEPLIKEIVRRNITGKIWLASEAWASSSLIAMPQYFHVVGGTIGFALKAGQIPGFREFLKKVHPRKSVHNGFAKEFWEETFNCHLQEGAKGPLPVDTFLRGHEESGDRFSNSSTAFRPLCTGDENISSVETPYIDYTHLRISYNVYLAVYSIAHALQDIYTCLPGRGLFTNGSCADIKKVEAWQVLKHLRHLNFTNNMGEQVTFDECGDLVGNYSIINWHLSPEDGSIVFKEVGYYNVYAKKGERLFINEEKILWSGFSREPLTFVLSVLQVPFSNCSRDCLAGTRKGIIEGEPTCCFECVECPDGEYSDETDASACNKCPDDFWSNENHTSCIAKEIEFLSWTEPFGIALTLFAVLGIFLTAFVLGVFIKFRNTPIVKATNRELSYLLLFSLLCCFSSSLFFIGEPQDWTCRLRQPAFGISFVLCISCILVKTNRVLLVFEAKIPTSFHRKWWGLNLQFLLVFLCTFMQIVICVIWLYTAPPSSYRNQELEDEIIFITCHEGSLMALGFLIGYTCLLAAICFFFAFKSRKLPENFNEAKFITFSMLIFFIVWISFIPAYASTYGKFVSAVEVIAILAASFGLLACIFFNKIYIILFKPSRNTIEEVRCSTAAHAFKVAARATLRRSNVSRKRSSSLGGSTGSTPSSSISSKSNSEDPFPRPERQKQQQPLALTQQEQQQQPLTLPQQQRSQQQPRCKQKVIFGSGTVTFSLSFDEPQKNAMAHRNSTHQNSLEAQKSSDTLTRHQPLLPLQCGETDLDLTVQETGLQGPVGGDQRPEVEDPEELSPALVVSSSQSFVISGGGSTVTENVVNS
Description: Xenopus oocytes were injected with pHuPCaR 5.2, the 5.2 Kb cDNA encoding a parathyroid cell calcium receptor derived from a human parathyroid cell adenoma. (See Example 27.) After two to three days, Cl^− currents were measured in the oocytes using a two-electrode voltage clamp.

human parathyroid cells = experiment: PTH secretion from human parathyroid cells; conditions: concentrations that mobilize intracellular Ca2+
Description: PTH secretion was measured by first suspending cells in PCB containing 0.5 mM CaCl2 and 0.1% BSA.
For human cells, a commercially available radioimmunoassay kit (INS-PTH; Nichols Institute, Los Angeles, Calif.) which recognizes intact and N-terminal human PTH was used because GW-1 antibody recognizes human PTH poorly.

calcium receptor = target: T2, calcium receptor (Homo sapiens, UniProt P41180); experiment: Cl- current in Xenopus oocytes injected with human parathyroid cell mRNA
T2 construct: poly(A)^+-enriched mRNA from human parathyroid tissue (hyperplastic glands from a case of secondary HPT); expressed in transfected cells; host or cells: Xenopus laevis oocytes injected with poly(A)+ mRNA from hyperplastic human parathyroid glands
T2 sequence (P41180 20-1078): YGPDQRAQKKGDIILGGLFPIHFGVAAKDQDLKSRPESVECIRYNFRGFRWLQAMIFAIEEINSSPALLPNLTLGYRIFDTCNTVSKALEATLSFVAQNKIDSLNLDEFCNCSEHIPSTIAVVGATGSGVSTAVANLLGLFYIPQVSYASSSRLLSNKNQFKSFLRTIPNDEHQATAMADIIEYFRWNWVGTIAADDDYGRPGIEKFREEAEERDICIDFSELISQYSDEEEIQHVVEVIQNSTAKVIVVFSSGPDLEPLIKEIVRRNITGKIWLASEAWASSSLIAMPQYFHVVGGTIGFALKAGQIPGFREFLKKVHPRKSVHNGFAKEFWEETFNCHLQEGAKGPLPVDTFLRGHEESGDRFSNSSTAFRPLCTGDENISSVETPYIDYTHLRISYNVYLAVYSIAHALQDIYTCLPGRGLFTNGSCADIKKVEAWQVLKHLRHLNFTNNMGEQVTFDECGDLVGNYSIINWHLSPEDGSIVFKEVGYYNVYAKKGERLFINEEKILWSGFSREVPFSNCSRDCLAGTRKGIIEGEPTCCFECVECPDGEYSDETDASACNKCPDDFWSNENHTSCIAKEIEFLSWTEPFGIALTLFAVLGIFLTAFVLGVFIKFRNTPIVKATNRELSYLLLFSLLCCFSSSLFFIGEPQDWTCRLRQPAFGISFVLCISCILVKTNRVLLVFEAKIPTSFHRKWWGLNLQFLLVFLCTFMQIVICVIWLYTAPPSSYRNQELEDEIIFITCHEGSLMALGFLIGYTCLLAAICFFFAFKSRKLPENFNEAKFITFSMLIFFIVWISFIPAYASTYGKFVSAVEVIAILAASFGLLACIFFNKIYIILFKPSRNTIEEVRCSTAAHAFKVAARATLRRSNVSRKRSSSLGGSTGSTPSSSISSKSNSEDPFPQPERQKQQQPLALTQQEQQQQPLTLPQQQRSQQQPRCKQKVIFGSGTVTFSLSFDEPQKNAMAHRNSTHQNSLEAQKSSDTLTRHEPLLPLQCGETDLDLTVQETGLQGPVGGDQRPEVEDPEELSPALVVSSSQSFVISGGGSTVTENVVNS
Description: Oocytes were injected with poly(A)^+-enriched mRNA from human parathyroid tissue (hyperplastic glands from a case of secondary HPT).
Following incubation, an oocyte was placed into a 100-μl plastic chamber and superfused with MBS at a flow rate of 0.5 ml/min using a peristaltic pump. Test molecules or inorganic polycations were added by rapidly moving the tubing into different buffers. Recording and current-passing electrodes were constructed from thin-wall capillary tubing pulled to a resistance of 1-3 Mohms and filled with 3 M KCl. […] Currents were recorded directly onto a strip chart recorder.
Using this screen allows one to test for an action directly on the calcium receptor. Oocytes expressing the calcium receptor also responded to several molecules active on intact parathyroid cells when screened as follows. […] This offers rather compelling evidence showing that these molecules act on the calcium receptor or on some other protein intimately associated with its function.

COc1cccc([C@@H](C)NCCCc2ccccc2Cl)c1 [NPS R-568, (R)-(+)-N-[3-(2-chlorophenyl)propyl]-α-methyl-3-methoxybenzylamine]
Cl- current [1]: evoked increases in the Cl^− current

NC[C@@H]1O[C@H](O[C@H]2[C@@H](O)[C@H](O[C@@H]3[C@@H](O)[C@H](N)C[C@H](N)[C@H]3O[C@H]3O[C@H](CN)[C@@H](O)[C@H](O)[C@H]3N)O[C@@H]2CO)[C@H](N)[C@@H](O)[C@@H]1O [Neomycin B, neomycin B]
PTH secretion (human parathyroid cells): inhibited PTH secretion
change in current in water-injected oocytes (calcium receptor; 10 mM, five water-injected oocytes): failed to cause any change in the current
mobilization of intracellular Ca2+ in oocytes (calcium receptor; hexacyclen 135 μM, neomycin 100 μM, NPS 382 5 mM): effective
